{
  "source": "paper PMC6335420",
  "about": "“The cell cycle regulator GpsB functions as cytosolic adaptor for multiple cell wall enzymes” (Nature Communications, 2019)",
  "molecules": {"B1": {"name": "LmSepF: L. monocytogenes SepF (protein)", "chain": "MGLSNKFKSFFFLDEEEEYYEEEVAREPEPMQKKTKKEKPNKNRFYAVEEDDAKVVSMQGAQFSSRMVLAEPRVYAEAQELADYLKEYKSVVVNLQRISHDQATRIVDFLSGTVYALGGDIQRVGNNIFLCTPDNVEVDGSISEMLDEQNFM", "modifications": "left off: T25 fragment of Bordetella pertussis adenylate cyclase (vectors pKT25 and p25-N), end not stated, kept", "notes": "L. monocytogenes SepF"}, "B2": {"name": "LmDivIB: L. monocytogenes DivIB (protein)", "chain": "MAENKRVISIENRIPELKKYRKKKLVRHLAILIGIFVILIAITLYFLSPLSKLDKIAVSGNKQLTENEVRKESGLEIGEFVIGISNGKTEDALKKNTLIKDATVSKEGLNDVQINITEFKTIGYQQQDGKYYDVLESGIMLTDQPRQFPIGNDLLFQNFKNGKTLEKMVDQINKLPKDVVSSISEVIYSPTKSDKNHIKLYMNDGNQVSADISTFAEKMQHYPAIVAQLAKGQKGVIDIEVGSYFQSYYQQNAEKKATEEAAKEKKETNE", "modifications": "left off: T25 fragment of Bordetella pertussis adenylate cyclase (vector pKT25), end not stated, kept", "notes": "L. monocytogenes DivIB"}, "B3": {"name": "LmMreC: L. monocytogenes MreC (protein)", "chain": "MPQFFLNKRLIILLISIIVLVALVGFSLRDRENASWPEQFVKDVVGFGENIVAKPTSFISGAVDGVVDLKNTYTENQHLKERLEELAQLESEVADLKKENKDLKESLDITDSIRDYDPLNASVISRNPTNWNDQVEIDKGSSDGVKPDMAVTTPSGLIGKVTTTGAKSATVELLTSSDVKNRVSAKVQGKENAFGIINGYDSDTKLLELKQLPYDMKFKKGQKVVTSGLGGKFPAGIFIGTIEKVETDKMGLSQTAFIKPGADMYDLNHVTVLKRSAEAGTTDDDTTSSDTTGGQ", "modifications": "left off: T25 fragment of Bordetella pertussis adenylate cyclase (vectors pKT25 and p25-N), end not stated, kept", "notes": "L. monocytogenes MreC"}, "B4": {"name": "LmGpsB: L. monocytogenes GpsB (self-interaction) (protein)", "chain": "MTSEQFEYHLTGKEILEKEFKTGLRGYSPEDVDEFLDMVIKDYSTFTQEIEALQAENIRLVQELDNAPLRTSTQPAPTFQAAAQPAGTTNFDILKRLSNLEKHVFGNKLDDNE", "modifications": "left off: T18 fragment of Bordetella pertussis adenylate cyclase, C-terminal, kept"}},
  "key": {"SpGpsB1-63": {"molecular_target": "T1, SpGpsB1-63 (Streptococcus pneumoniae, UniProt Q8DR57)", "T1 construct": "The SpGpsB1-63 expression construct (pET28SpGpsB1-63) was prepared by PCR amplification of gpsB; His6 (N, cleaved yes); made in house; host or cells: E. coli BL21(DE3)", "assay": "Fluorescence polarisation binding to SpGpsB1-63", "settings": "FP, relative to wild-type SpPBP2a23-45", "source_text": "(§1) 75 the BsGpsB5-64:BsPBP11-17 complex."}, "BsGpsB1-68": {"molecular_target": "T2, BsGpsB1-68 (Bacillus subtilis, UniProt P0CI74)", "T2 construct": "His6 (N, cleaved yes); made in house; host or cells: E. coli BL21(DE3)", "format": "binding", "settings": "FP, relative to wild-type peptide", "source_text": "as §1"}, "[1]": {"assay": "Circular dichroism of PBP peptides (helicity)", "format": "physicochemical", "protocol": "CD spectra were recorded on a JASCO J-810 spectropolarimeter with a PTC-4235 Peltier temperature controller using 1 mm path length quartz cuvettes. For full wavelength scans a scan speed of 10 nm^−1min^−1 and a response time of 4 s were used, the final spectra were the average of at least four measurements. BsPBP1_1-32 CD spectra were recorded at 4 °C in a buffer of 20 mM sodium phosphate, pH 7.3 at a peptide concentration of 25 μM. Peptide helical contents were estimated from molar ellipticities at 222 nm using the equation helix = [θ]222 nm / (39,500(1–2.57/n))[78] where n is the number of residues in the peptide. LmPBPA1_1-15 CD spectra were analysed at 40 μM in 20 mM sodium phosphate buffer, pH 7.8, for samples containing 0, 40 and 60% trifluoroethanol (TFE). For samples containing 80% TFE, 5 mM sodium phosphate buffer, pH 7.8, was used. The CD spectra of BsGpsB1-68 proteins were measured at a concentration of 4.5 μM in a buffer of 20 mM sodium phosphate (pH 7.8) 150 mM NaCl. For thermal melt experiments, a response time of 8 s and scan rate of 1 °C^−1min^−1 were used. All thermal melts were reversible as CD spectra recorded before and after the melts in the wavelength range 200–240 nm could be superimposed."}, "LmGpsB": {"tested_on": "LmGpsB", "assay": "BACTH (bacterial two-hybrid) interaction with LmGpsB", "format": "cell-based, Listeria monocytogenes", "settings": "E. coli BTH101, 30 °C, photographed after 24 and 48 h; LmPBPA1 variants as T25-PBPA1ΔGT-TP", "source_text": "The BACTH system[63] was used for analysis of protein:protein interactions. First, LmGpsB was screened against LmPBPA1 (lmo1892) variants to identify residues in LmPBPA1 that are important for binding LmGpsB. To facilitate screening, we used a T25 fragment of Bordetella pertussis adenylate cyclase that had been fused to the N-terminal 91 amino acids of LmPBPA1 to create a T25-LmPBPA1 fusion containing the N-terminal cytoplasmic mini-domain and the transmembrane helix, but lacking lacking the extracellular glycosyltransferase and transpeptidase domains (T25-PBPA1ΔGT-TP) in plasmid pSH437[21]. LmPBPA1 residues that corresponded to the BsGpsB binding motif of BsPBP1 (Thr7, Arg8, Tyr11, Arg12) and additional positively charged amino acids (Lys14, Lys20, Lys21, Lys22, Lys25, Arg26, Lys28 and Arg29) in T25-PBP A1ΔGT-TP were replaced with alanine prior to screening against GpsB-T18. The pSH437 plasmid was mutated by Quikchange mutagenesis using the primer pairs SHW744/SHW754 (T7A, pSH485), SHW746/SHW747 (R8A, pSH486), SHW755/SHW756 (Y11A, pSH487), SHW748/SHW749 (R12A, pSH488), SHW757/SHW758 (K14A, pSH489), SHW759/SHW760 (K20A, pSH490), SHW761/SHW762 (K21A, pSH491), SHW763/SHW764 (K22A, pSH492), SHW765/SHW766 (K25A, pSH493), SHW767/SHW768 (R26A, pSH494), SHW769/SHW770 (K28A, pSH495) and SHW771/SHW772 (R29A, pSH496).\npJR164 and pJR169 were constructed by cloning sepF (primers JR334/JR335 and XbaI/KpnI digestion) into pKT25 and p25-N, respectively. pJR165 and pJR170 were generated by cloning ezrA into pKT25 and p25-N, respectively, using primers JR339/JR340 and XbaI/KpnI for digestion. pJR172 and pJR174 were obtained by cloning zapA into pKT25 and p25-N, respectively, using primers JR337/JR338 and PstI/KpnI. pJR213 was constructed by amplification of divIB with primers JR353/JR354 and cloning into pKT25 using XbaI/KpnI. pJR214 was generated by PCR amplification of divIC with primers JR355/JR356 and cloning into pKT25 using XbaI/KpnI. mreBH was amplified by PCR using oligonucleotides JR368/JR369 and cloned into pKT25 and p25-N using XbaI/KpnI, resulting in pJR233 and pJR236, respectively. pJR242 and pJR243 were obtained by cloning mreC into pKT25 and p25-N, respectively, using primers JR364/JR365 and PstI/KpnI digestion. pbpA2 was cloned into pKT25 using oligonucleotides SHW153/SHW154 and XbaI/KpnI to create pJR250. pbpB1 was amplified with primers SHW157/SHW158 and cloned with SmaI/EcoRI into pKT25, yielding pSH236. pbpB2 was amplified with primers SHW155/SHW156 and cloned into pKT25 after PstI/BamHI digestion, yielding plasmid pSH235. pbpB3 was amplified using primers SHW159/160 and cloned by PstI/BamHI digestion into pKT25, resulting in pSH237. Finally, pSH484 was obtained by removing the N-terminal domain from gpsB present on plasmid pSH226 in a PCR with the primer pair SHW752/SHW753.\nPlasmids encoding the respective genes fused to the N- or C-termini of the T18- or the T25-fragment of the Bordetella pertussis adenylate cyclase were co-transformed into E. coli BTH101. Transformants were selected on LB agar plates containing ampicillin (100 µg^−1mL^−1), kanamycin (50 µg^−1mL^−1), X-Gal (40 µg^−1mL^−1) and IPTG (0.1 mM) and photographs were taken after 24 and 48h growth at 30 °C. The BACTH experiments in Fig. 2b and Supplementary Figure 3C, D were repeated at least twice."}},
  "note": "“Also recorded” adds a separate entry of the source. Read-outs that look alike come from different tables or passages of the source. Residues, ends and D or L forms follow the SMILES beside them. *: point of attachment. X1 = CN(C)c1ccc2c(-c3ccc(N4C(=O)CC(*)C4=O)cc3C(=O)[O-])c3ccc(=[N+](C)C)cc-3oc2c1",
  "data": [
    {"molecule": "CC[C@H](C)[C@H](NC(=O)[C@@H]1CCCN1C(=O)[C@H](CSC1CC(=O)N(c2ccc(-c3c4ccc(=[N+](C)C)cc-4oc4cc(N(C)C)ccc34)c(C(=O)[O-])c2)C1=O)NC(=O)[C@@H](NC(=O)[C@H](CCC(N)=O)NC(=O)[C@H](C)NC(=O)[C@H](CC(C)C)NC(=O)[C@H](CCCCN)NC(=O)[C@H](CCCCN)NC(=O)[C@H](CCCNC(=N)N)NC(=O)[C@H](CC(=O)O)NC(=O)[C@H](CO)NC(=O)[C@H](CCCCN)NC(=O)[C@H](CO)NC(=O)[C@H](CCCCN)NC(=O)[C@H](CCCNC(=N)N)NC(=O)[C@H](CC(C)C)NC(=O)[C@@H](NC(=O)[C@@H](NC(=O)[C@H](CO)NC(=O)[C@H](CC(=O)O)NC(=O)[C@H](CO)NC(=O)[C@H](CC(=O)O)NC(=O)[C@H](CCSC)NC(=O)[C@H](CO)NC(=O)CN)[C@@H](C)O)[C@@H](C)CC)C(C)C)C(=O)O", "note": "(stereo partly shown) [TAMRA-SpPBP2a23-45 Arg31LysArg33Lys] (H-GSMDSDSTILRKSKSDRKKLAQVC(X1)PI-OH)", "values": [
      {"measurement": "reduction in affinity for SpGpsB1-63", "setting": "SpGpsB1-63", "result": "> 25", "unit": "fold"}
    ]},
    {"molecule": "CSCC[C@H](NC(=O)[C@H](CO)NC(=O)CN)C(=O)N[C@@H](C)C(=O)N[C@@H](CC(=O)O)C(=O)N[C@@H](CCC(N)=O)C(=O)N[C@@H](Cc1ccccc1)C(=O)N[C@@H](CC(N)=O)C(=O)N[C@@H](CO)C(=O)N[C@@H](CCCNC(=N)N)C(=O)N[C@@H](CCC(=O)O)C(=O)N1CCC[C@H]1C(=O)N[C@@H](CCCNC(=N)N)C(=O)N[C@@H](CCCNC(=N)N)C(=O)N[C@@H](CCCCN)C(=O)N[C@@H](C)C(=O)N[C@@H](CC(N)=O)C(=O)N[C@@H](CSC1CC(=O)N(c2ccc(-c3c4ccc(=[N+](C)C)cc-4oc4cc(N(C)C)ccc34)c(C(=O)[O-])c2)C1=O)C(=O)N[C@@H](CCCCN)C(=O)N[C@@H](CO)C(=O)N[C@@H](CO)C(=O)N1CCC[C@H]1C(=O)N[C@@H](CO)C(=O)N1CCC[C@H]1C(=O)N[C@@H](CCCCN)C(=O)N[C@@H](CCCCN)C(=O)NCC(=O)N[C@@H](CCCCN)C(=O)N[C@@H](CCCCN)C(=O)N[C@@H](CCCNC(=N)N)C(=O)N[C@@H](CCCCN)C(=O)N[C@@H](CCCCN)C(=O)NCC(=O)NCC(=O)O", "note": "(stereo partly shown) [TAMRA-BsPBP11-32 Ala10Pro] (H-GSMADQFNSREPRRKANC(X1)KSSPSPKKGKKRKKGG-OH)", "values": [
      {"measurement": "reduction in affinity for BsGpsB1-68", "setting": "BsGpsB1-68; listed as BsPBP1_1-32^Ala10Pro", "result": "at least 6 fold"},
      {"measurement": "reduction in affinity for BsGpsB1-68", "setting": "BsGpsB1-68; listed as BsPBP11-32Ala10Pro", "result": "> 8", "unit": "fold"},
      {"measurement": "helical residues corresponding to helical content", "setting": "[1]; CD, 222 nm, 4 °C, 20 mM sodium phosphate pH 7.3, 25 μM peptide", "result": "one"},
      {"measurement": "α-helical content", "setting": "[1]; CD, 222 nm, 4 °C, 20 mM sodium phosphate pH 7.3, 25 μM peptide, average of at least four measurements", "result": 2, "unit": "%"},
      {"measurement": "secondary structure by CD (in words)", "setting": "[1]; LmPBPA1 peptides 40 μM, 20 mM sodium phosphate pH 7.8, TFE 0-80% (5 mM phosphate at 80%), BsPBP1_1-32 peptides 25 μM, pH 7.3, 4 °C", "result": "mostly random coil"}
    ]},
    {"molecule": "B1", "values": [
      {"measurement": "BACTH interaction with LmGpsB", "setting": "LmGpsB", "result": "turned blue after one day of incubation"}
    ]},
    {"molecule": "B2", "values": [
      {"measurement": "BACTH interaction with LmGpsB", "setting": "LmGpsB", "result": "turned blue after 2 days incubation"}
    ]},
    {"molecule": "B3", "values": [
      {"measurement": "BACTH interaction with LmGpsB", "setting": "LmGpsB", "result": "turned blue after one day of incubation; also recorded: turned blue after 2 days incubation"}
    ]},
    {"molecule": "B4", "values": [
      {"measurement": "BACTH interaction with LmGpsB", "setting": "LmGpsB", "result": "turned blue after one day of incubation"}
    ]}
  ]
}
